Assay results as given in patent publication US20230116114A1, “COMPOUNDS AND COMPOSITIONS FOR TREATING CNS DISORDERS” (Blue Oak Pharmaceuticals, Inc., priority 2020, published 2023).
Where a name gives a salt, the structure may show the parent alone.

System: mice
Experiment: SmartCube in vivo neuropharmacological behavioral assay
Details: for minimal effective dose: Mus musculus, ip, 0.25 h, dose having 50% or more total activity in SmartCube, i.p., read-out: MED (minimal effective dose); for AD: antidepressant (percent probability) / AG: analgesic (percent probability) / AP: antipsychotic (percent probability) / AX: anxiolytic (percent probability) / CE: cognitive enhancer (percent probability) / HA: hallucinogenic (percent probability) / MS: mood stabilizer (percent probability) / PS (percent probability) / SD: sedative hypnotic (percent probability) / SE: side effects (percent probability) / UN: uncharacterized CNS activity (percent probability) / XG: anxiogenic (percent probability): SmartCube, i.p. 15 min before test, result at the MED
Method: The compounds were evaluated for their CNS related properties (e.g., the treatment, prevention or diagnosis of CNS or CNS-related disorders and/or amelioration of symptoms) using neuropharmacological screening methods described in S. L. Roberts et al., Front. Neurosci. 2011, 5:103 (hereinafter referred to as “Roberts,” the contents of which are incorporated herein by reference in their entirety).
According to Roberts, intact systems are useful in detecting improvement in disease-relevant endpoints, because psychiatric diseases generally result from disorders of cell-cell communication or circuitry. The endpoints are typically behavioral in nature, often requiring human observation and interpretation. In order to test multiple compounds for behavioral effects relevant to neurological and psychiatric diseases and disorders, PsychoGenics, Inc. (Paramus, N.J. “PGI”) developed SmartCube®, an automated system in which behaviors of compound-treated mice are captured by digital video and analyzed with computer algorithms to facilitate testing of multiple compounds for behavioral effects relevant to psychiatric disease. (D. Brunner et al., Drug Discov. Today 2002, 7:S107-S112; Alexandrov et al., Eur. J. Pharmacol. 2015, 753:127-134; the contents of each of which are incorporated herein by reference in their entirety).
The SmartCube® system is described in Example 2.2 of U.S. Pat. No. 9,758,529 and Example 289 of WIPO Publication No. WO2018/023070, the contents of each of which are incorporated herein by reference in their entirety.
According to the present disclosure, compounds identified may be evaluated using the SmartCube® system. The results of such analysis correlate certain patterns or combinations of behaviors to CNS effects along a percent probability scale of 0-100 where zero (0) reflects the limit of quantitation (LOQ).
The compounds of the present disclosure were evaluated for their CNS related properties (e.g., the treatment, prevention or diagnosis of CNS or CNS-related disorders and/or amelioration of symptoms) using neuropharmacological screening methods described in S. L. Roberts et al., Front. Neurosci. 2011, 5:103 (hereinafter referred to as “Roberts,” the contents of which are incorporated herein by reference in their entirety).
The SmartCube® system described herein was utilized to compare the behavioral signature of a test compound to a database of behavioral signatures obtained using a large set of diverse reference compounds (including but not limited to antipsychotics, anxiolytics, antidepressants and bipolar disorder medicine), thereby predicting the neuropharmacological effects of a test compound by similarity to major classes of compounds. It produces an activity signature indicating the probability that the activity of the test compound at the administered dose matches a given class of neuropharmacological agents. The test compound is simultaneously compared against multiple classes of agents; thus, a separate probability is generated for each behavioral effect measured (such as but not limited to anxiolytic activity and analgesic activity).
The compounds of the present disclosure were dissolved in a mixture of Pharmasolve™ (N-methyl-2-pyrrolidone (NMP)) and were injected i.p. 15 min. before the behavioral test. For each compound, injections were administered at different dose levels (e.g., 0.3, 1, 3, 10 and 30 mg per kg (mpk)). A compound's minimal effective dose (MED; see Table 3) is a measure of the compound's potency. The MED was defined as the dose (in mpk) having 50% or more total activity in SmartCube®. For each behavioral effect measured, results at the MED are presented. CNS activities of the compounds were recorded (see Table 2). In Table 1, a key to the percent probabilities (probability ×100) for each behavioral effect (“X”) are defined provided, where LOQ is the limit of quantification.

Row | SMILES | minimal effective dose [mg/kg] | AD: antidepressant (percent probability) | AG: analgesic (percent probability) | AP: antipsychotic (percent probability) | AX: anxiolytic (percent probability) | CE: cognitive enhancer (percent probability) | HA: hallucinogenic (percent probability) | MS: mood stabilizer (percent probability) | PS (percent probability) | SD: sedative hypnotic (percent probability) | SE: side effects (percent probability) | UN: uncharacterized CNS activity (percent probability) | XG: anxiogenic (percent probability)
1 | CC1CC2c3ccccc3C(C1)N2C1CCC1 (stereo not shown) [Compound 36, 12-Cyclobutyl-10-methyl-12-azatricyclo[6.3.1.0^2,7]dodeca-2,4,6-triene hydrochloride] | 1 to 10 | ++++ (50% ≤ X < 100%) | + (LOQ ≤ X < 5%) | + (LOQ ≤ X < 5%) | + (LOQ ≤ X < 5%) | + (LOQ ≤ X < 5%) | ++ (5% ≤ X < 25%) | + (LOQ ≤ X < 5%) | + (LOQ ≤ X < 5%) | + (LOQ ≤ X < 5%) | + (LOQ ≤ X < 5%) | ++ (5% ≤ X < 25%) | + (LOQ ≤ X < 5%)
2 | CC1CC2NC(C1)c1ccccc12 (stereo not shown) [Compound 29, 10-Methyl-12-azatricyclo[6.3.1.0^2,7]dodeca-2,4,6-triene hydrochloride] | 1 to 10 | ++ (5% ≤ X < 25%) | ++ (5% ≤ X < 25%) | + (LOQ ≤ X < 5%) | +++ (25% ≤ X < 50%) | + (LOQ ≤ X < 5%) | + (LOQ ≤ X < 5%) | + (LOQ ≤ X < 5%) | + (LOQ ≤ X < 5%) | + (LOQ ≤ X < 5%) | + (LOQ ≤ X < 5%) | + (LOQ ≤ X < 5%) | + (LOQ ≤ X < 5%)
3 | CC[C@@H](C)N1C2CCCC1c1ccccc12 [Compound 25, 12-[(2R)-Butan-2-yl]-12-azatricyclo[6.3.1.0^2,7]dodeca-2,4,6-triene hydrochloride] | 1 to 10 | ++++ (50% ≤ X < 100%) | + (LOQ ≤ X < 5%) | + (LOQ ≤ X < 5%) | + (LOQ ≤ X < 5%) | + (LOQ ≤ X < 5%) | + (LOQ ≤ X < 5%) | + (LOQ ≤ X < 5%) | ++ (5% ≤ X < 25%) | + (LOQ ≤ X < 5%) | + (LOQ ≤ X < 5%) | + (LOQ ≤ X < 5%) | + (LOQ ≤ X < 5%)
4 | c1ccc2c(c1)C1CCCC2N1C1CCC1 [Compound 10, 12-Cyclobutyl-12-azatricyclo[6.3.1.0^2,7]dodeca-2,4,6-triene hydrochloride] | 1 to 10 | ++++ (50% ≤ X < 100%) | ++ (5% ≤ X < 25%) | + (LOQ ≤ X < 5%) | ++ (5% ≤ X < 25%) | + (LOQ ≤ X < 5%) | ++ (5% ≤ X < 25%) | + (LOQ ≤ X < 5%) | ++ (5% ≤ X < 25%) | + (LOQ ≤ X < 5%) | + (LOQ ≤ X < 5%) | + (LOQ ≤ X < 5%) | + (LOQ ≤ X < 5%)
5 | CO[C@H]1CC[C@H]2c3ccccc3[C@@H]1N2C(C)C (stereo in doubt) [Compound 28, 9-methoxy-12-(propan-2-yl)-12-azatricyclo[6.3.1.0^2,7]dodeca-2,4,6-triene hydrochloride] | 10 to 30 | ++ (5% ≤ X < 25%) | ++ (5% ≤ X < 25%) | + (LOQ ≤ X < 5%) | ++ (5% ≤ X < 25%) | + (LOQ ≤ X < 5%) | + (LOQ ≤ X < 5%) | + (LOQ ≤ X < 5%) | ++ (5% ≤ X < 25%) | + (LOQ ≤ X < 5%) | + (LOQ ≤ X < 5%) | +++ (25% ≤ X < 50%) | + (LOQ ≤ X < 5%)
6 | CC([C@@H](C)F)N1C2CCCC1c1ccccc12 (stereo in doubt) [Compound 23, 12-(3-Fluorobutan-2-yl)-12-azatricyclo[6.3.1.0^2,7]dodeca-2,4,6-triene hydrochloride] | > 30 | + (LOQ ≤ X < 5%) | + (LOQ ≤ X < 5%) | + (LOQ ≤ X < 5%) | + (LOQ ≤ X < 5%) | + (LOQ ≤ X < 5%) | + (LOQ ≤ X < 5%) | + (LOQ ≤ X < 5%) | + (LOQ ≤ X < 5%) | + (LOQ ≤ X < 5%) | + (LOQ ≤ X < 5%) | ++ (5% ≤ X < 25%) | + (LOQ ≤ X < 5%)
7 | c1ccc2c(c1)C1CCCC2N1C1CCOC1 (stereo not shown) [Compound 9, 12-(Oxolan-3-yl)-12-azatricyclo[6.3.1.0^2,7]dodeca-2,4,6-triene hydrochloride] | 10 to 30 | +++ (25% ≤ X < 50%) | ++ (5% ≤ X < 25%) | + (LOQ ≤ X < 5%) | ++ (5% ≤ X < 25%) | + (LOQ ≤ X < 5%) | + (LOQ ≤ X < 5%) | + (LOQ ≤ X < 5%) | + (LOQ ≤ X < 5%) | + (LOQ ≤ X < 5%) | + (LOQ ≤ X < 5%) | ++ (5% ≤ X < 25%) | ++ (5% ≤ X < 25%)
